Data from patent US20140213647A1, “COMPOUND USEFUL FOR PREVENTING OR TREATING IRRITABLE BOWEL SYNDROME AND COMPOSITION INCLUDING SAME” (SK CHEMICALS CO., LTD., priority 2011, published 2014).
pIC50: −log10 of the molar value.

Experiments:
[1] = target: T1, human-derived cannabinoid CB2 receptor (Homo sapiens, UniProt P34972); test: Inhibiting activity against cannabinoid CB2 receptor ([3H]WIN-55,212-2 binding); conditions: cell membranes expressing human-derived cannabinoid CB2 receptor, ligand [3H]WIN-55,212-2, 37° C. 90 minutes
T1 construct: expressed in transfected cells
Protocol: Each of 100 μl of a modified HEPES buffer was added to each well, to which the compound (50, 500, 1500, 5000, 15000 μM) of the present invention dissolved in DMSO and a positive control, R(+)-WIN-55, 212-2 (0.05, 0.25, 0.5, 2.5, 5 nM) were added in an amount of 5 μl, respectively. Thereto, each of 50 μl of a cannabinoid CB2 receptor ligand, [^3H]WIN-55, 212-2 was added, and each of 100 μl of a modified Tris-HCl buffer having cell membranes in which a human-derived cannabinoid CB2 receptor is expressed was added. After incubating at 37° C. for 90 minutes, the resultants were filtered and washed 3 times. The number of cell membranes bound with an isotope was calculated by means of β-ray measurement.

[2] = target: T2, human-derived melanocortin MC1 receptor (Homo sapiens, UniProt Q01726); test: Inhibiting activity against melanocortin MC1 receptor ([125I]NDP-a-MSH binding); conditions: cell membranes expressing human-derived melanocortin MC1 receptor, ligand [125I]NDP-a-MSH, 37° C. 120 minutes
T2 construct: expressed in transfected cells
Protocol: Each of 100 μl of a modified HEPES-KOH buffer was added to each well, to which the compound (50, 500, 1500, 5000, 15000 μM) of the present invention dissolved in DMSO and a positive control, NDP-a-MSH (0.25, 0.5, 2.5, 5, 25 nM) were added in an amount of 5 μl, respectively. Thereto, each of 50 μl of a melanocortin MC1 receptor ligand, [^125l] NDP-a-MSH was added, and each of 100 μl of a modified Tris-HCl buffer having cell membranes in which a human-derived melanocortin MC1 receptor is expressed was added. After incubating at 37° C. for 120 minutes, the resultants were filtered and washed 3 times. The number of cell membranes bound with an isotope was calculated by means of β-ray measurement.

[3] = target: T3, human-derived NK2 receptor (Homo sapiens, UniProt P21452); test: Inhibiting activity against NK2 receptor ([3H]SR-48968 competitive binding); conditions: cell membranes expressing human-derived NK2 receptor, ligand [3H]SR-48968, 25° C. 90 minutes
T3 construct: expressed in transfected cells
T3 sequence (P21452 1-398): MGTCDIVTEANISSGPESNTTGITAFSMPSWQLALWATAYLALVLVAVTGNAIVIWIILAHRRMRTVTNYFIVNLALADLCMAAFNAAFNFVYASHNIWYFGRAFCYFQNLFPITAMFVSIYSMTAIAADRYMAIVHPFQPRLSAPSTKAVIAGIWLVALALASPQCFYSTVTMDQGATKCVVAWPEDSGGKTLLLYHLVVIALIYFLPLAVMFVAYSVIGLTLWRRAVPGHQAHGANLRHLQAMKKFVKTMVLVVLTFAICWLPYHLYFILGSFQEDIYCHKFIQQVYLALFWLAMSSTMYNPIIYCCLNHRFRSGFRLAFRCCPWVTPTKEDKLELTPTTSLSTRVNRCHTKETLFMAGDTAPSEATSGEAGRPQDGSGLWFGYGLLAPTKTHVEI
Protocol: Each of 100 μl of a modified HEPES buffer was added to each well, to which the compound (50, 500, 1500, 5000, 15000 μM) dissolved in DMSO and a positive control, MEN-10,376 (0.5, 2.5, 5, 25, 50 μM) were added in an amount of 5 μl, respectively. Thereto, each of 50 μl of a NK2 receptor ligand, [3H]SR-48968 was added, and each of 100 μl of a modified HEPES buffer having cell membranes in which a human-derived NK2 receptor is expressed was added. After incubating with stirring (200 rpm) at 25° C. for 90 minutes, the resultants were filtered and washed 3 times.
The number of cell membranes bound with an isotope ([^3H]SR-48968) was calculated by means of […] measurement. At this time, as a test material is strongly bound with the receptor, the ligand [^3H]SR-48968 is not bound and measured values decrease (competitive bonding). The value for the well added with only the ligand was represented as “0% inhibition”, and the well having no ligand, as “100% inhibition’, and the inhibition rate was measured depending on the amount of drug concentration.

[4] = target: T4, human-derived motilin receptor (Homo sapiens, UniProt O43193); test: Inhibiting activity against motilin receptor (radioligand binding); conditions: cell membranes expressing human-derived motilin receptor, 25° C. 150 minutes
T4 construct: expressed in transfected cells
Protocol: Each of 100 μl of a modified Tris-HCl buffer was added to each well, to which the compound (50, 500, 1500, 5000, 15000 μM) of the present invention dissolved in DMSO and a positive control, motilin (2.5, 5, 25, 50, 250 μM) were added in an amount of 5 μl, respectively. Thereto, each of 50 μl of a motilin receptor ligand, […] was added, and each of 100 μl of a modified Tris-HCl buffer having cell membranes in which a human-derived motilin receptor is expressed was added. After incubating at 25° C. for 150 minutes, the resultants were filtered and washed 3 times. The number of cell membranes bound with an isotope was calculated by means of β-ray measurement.

[5] = tested on: visceral hypersensitivity in colitis-induced rats; test: Suppressing effect of visceral pain in CRD (colorectal distension) model; assay type: in vivo, Sprague-Dawley male rats; conditions: CRD test about 1 hour after dosing
Protocol: To evaluate the suppressing effect of the separated (6E,12E)-3-hydroxytetradeca-6,12-dien-8,10-diyn-1-yl acetate on the visceral hypersensitivity, a Colorectal Distension (CRD) test that has been often used in the evaluation of drugs for IBS was conducted as follows (see J H. La et al., World J. Gastroenterol. Dec., 9(12): p 2791-2795, 2003).
250 to 300 g of Sprague-Dawley male rats (Charles River) were used for the CRD test. Two rats per one cage were reared in a room of 25° C., humidity 50%, and day-night 12:12 hours of cycle. Rats were freely provided with drink water and food, and were adapted to the room condition for 5 days, followed by inducing colitis. […]
A 2 cm-long rubber balloon was inserted into the rectum of each rat, and was filled with 37° C-warmed water in stages, from 0.1 to 1.0 ml. The appearing pain reactions of rats were recorded. The specific behaviors of CRD test animals were represented with AWR (abdominal withdrawal reflex), which was indirectly and quantitatively analyzed by AWR scores given on each behavior, and the AWR scores were used for identifying the abdominal pain reaction. […]
The presence of visceral hypersensitivity was checked in CRD rats 7 days after inducing colitis. […] Student's t-test (p<0.01 (**) or p<0.001 (***)) was used for statistical approach, and significance relative to the vehicle-administered group was detected. […]

[6] = target: T5, human-derived guanylate cyclase (Homo sapiens, UniProt Q02153); test: Activity against guanylate cyclase (cGMP production, EIA); assay type: biochemical; conditions: Sf9 lysate with human-derived guanylate cyclase, antagonistic activity vs 30 μM sodium nitroprusside, cGMP by EIA
T5 construct: made in house; host or cells: Sf9 insect cells (lysate used)
T5 sequence (Q02153 1-619): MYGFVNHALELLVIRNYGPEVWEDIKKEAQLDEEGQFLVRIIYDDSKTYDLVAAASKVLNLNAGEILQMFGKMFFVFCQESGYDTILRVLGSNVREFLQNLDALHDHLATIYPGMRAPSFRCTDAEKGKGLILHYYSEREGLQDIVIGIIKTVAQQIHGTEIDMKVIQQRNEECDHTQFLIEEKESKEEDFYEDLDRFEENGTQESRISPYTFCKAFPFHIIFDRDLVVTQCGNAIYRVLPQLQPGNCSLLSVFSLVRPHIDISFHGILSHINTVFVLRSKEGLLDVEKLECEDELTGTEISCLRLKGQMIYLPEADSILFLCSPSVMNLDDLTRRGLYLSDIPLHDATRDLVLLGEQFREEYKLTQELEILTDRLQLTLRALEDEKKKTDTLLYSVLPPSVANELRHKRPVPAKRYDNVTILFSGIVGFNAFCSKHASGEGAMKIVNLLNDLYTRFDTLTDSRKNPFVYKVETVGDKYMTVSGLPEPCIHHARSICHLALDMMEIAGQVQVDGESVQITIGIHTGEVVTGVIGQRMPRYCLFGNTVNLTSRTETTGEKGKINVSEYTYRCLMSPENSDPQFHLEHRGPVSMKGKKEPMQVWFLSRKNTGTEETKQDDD
T5 sequence (Q02108 1-690 partner): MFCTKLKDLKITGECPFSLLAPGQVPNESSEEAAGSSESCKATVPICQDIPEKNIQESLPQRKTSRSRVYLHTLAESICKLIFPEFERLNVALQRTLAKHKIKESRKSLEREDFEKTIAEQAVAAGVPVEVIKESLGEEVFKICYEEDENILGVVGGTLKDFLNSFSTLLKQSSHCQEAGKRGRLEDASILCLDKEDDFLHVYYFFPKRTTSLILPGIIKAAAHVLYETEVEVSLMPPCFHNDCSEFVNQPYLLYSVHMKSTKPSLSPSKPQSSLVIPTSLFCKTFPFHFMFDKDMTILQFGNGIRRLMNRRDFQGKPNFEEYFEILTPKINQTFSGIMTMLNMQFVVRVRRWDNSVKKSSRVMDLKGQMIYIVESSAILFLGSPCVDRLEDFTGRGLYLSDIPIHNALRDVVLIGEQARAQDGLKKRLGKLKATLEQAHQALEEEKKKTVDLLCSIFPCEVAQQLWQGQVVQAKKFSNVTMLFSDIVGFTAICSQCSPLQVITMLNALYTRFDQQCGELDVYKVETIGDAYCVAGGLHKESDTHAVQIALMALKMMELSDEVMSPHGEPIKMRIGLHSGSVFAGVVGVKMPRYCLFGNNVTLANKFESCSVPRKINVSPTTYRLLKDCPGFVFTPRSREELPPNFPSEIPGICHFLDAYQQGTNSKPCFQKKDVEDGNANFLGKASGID
Protocol: Plasmid in which a human-derived guanylate cyclase is expressed was transfected to Sf9 insect cells, followed by proliferation and then lysis. The compound (1, 10, 30, 100, 300 μM) of the present invention dissolved in DMSO and a positive control, ODQ (1H-[1,2,4]oxadiazolo[4,3-a]quinoxalin-1-one, 0.5, 0.1, 0.05, 0.01, 0.005 μM) were added to each well, to which guanylate cyclase (the lysed solution) which is mixed in a modified Tris-HCl buffer was added until its final concentration became to 0.013 μg/ml. After incubating at 37° C. for 20 minutes, 1N HCl was added to end the reaction.
After removing the guanylate cyclase, an amount of cGMP produced from the reaction was subject to quantitative measurement using an EIA kit. The amount of cGMP increases as the guanylate cyclase converting GTP to cGMP is activated. The activation of the guanylate cyclase was calculated based on the assumption that the result of sodium nitroprusside (30 μM), an agonist of the guanylate cyclase was 100%. The antagonistic activity against the guanylate cyclase was calculated based on the assumption that the result when treated only with 30 μM of sodium nitroprusside was 100% compared to when treated with both sodium nitroprusside and a drug.

T4 sequence (O43193 whole entry): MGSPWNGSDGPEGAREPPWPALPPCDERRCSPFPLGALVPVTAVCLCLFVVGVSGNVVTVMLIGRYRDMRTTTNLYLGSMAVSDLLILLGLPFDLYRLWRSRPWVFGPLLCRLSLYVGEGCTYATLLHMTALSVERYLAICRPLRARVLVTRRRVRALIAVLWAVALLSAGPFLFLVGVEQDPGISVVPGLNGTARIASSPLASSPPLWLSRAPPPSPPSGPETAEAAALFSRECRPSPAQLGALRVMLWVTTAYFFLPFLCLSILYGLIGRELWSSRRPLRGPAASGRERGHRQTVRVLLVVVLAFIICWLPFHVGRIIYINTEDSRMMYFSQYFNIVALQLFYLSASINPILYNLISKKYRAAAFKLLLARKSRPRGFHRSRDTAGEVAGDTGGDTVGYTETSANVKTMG
T1 sequence (P34972 whole entry): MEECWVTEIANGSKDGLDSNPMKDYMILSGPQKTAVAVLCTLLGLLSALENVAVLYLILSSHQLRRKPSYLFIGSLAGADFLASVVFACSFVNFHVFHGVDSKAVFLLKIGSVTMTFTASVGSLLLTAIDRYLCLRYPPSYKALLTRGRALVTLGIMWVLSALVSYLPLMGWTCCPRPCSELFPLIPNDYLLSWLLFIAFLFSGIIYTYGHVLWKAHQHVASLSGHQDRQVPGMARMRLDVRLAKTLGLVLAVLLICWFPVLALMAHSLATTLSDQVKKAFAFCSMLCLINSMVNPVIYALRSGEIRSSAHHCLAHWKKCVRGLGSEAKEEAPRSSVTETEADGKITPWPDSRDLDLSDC
T2 sequence (Q01726 whole entry): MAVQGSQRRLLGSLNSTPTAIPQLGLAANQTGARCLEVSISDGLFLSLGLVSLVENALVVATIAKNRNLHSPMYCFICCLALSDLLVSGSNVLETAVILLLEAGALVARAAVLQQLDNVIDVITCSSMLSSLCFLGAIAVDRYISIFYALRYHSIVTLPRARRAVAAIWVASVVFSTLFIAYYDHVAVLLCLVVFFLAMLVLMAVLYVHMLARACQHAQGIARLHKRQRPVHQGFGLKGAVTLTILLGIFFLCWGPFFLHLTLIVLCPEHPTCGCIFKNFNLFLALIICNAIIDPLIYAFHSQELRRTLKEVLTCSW

C/C=C/C#CC#C/C=C/CCC(O)CCOC(C)=O (stereo not shown) [(6E,12E)-3-hydroxytetradeca-6,12-dien-8,10-diyn-1-yl acetate]
pIC50 [1]: 4.35 | pIC50 [2]: 3.88 | pIC50 [3]: 4.51 | pIC50 [4]: 4.54 | suppressing effect against visceral hypersensitivity relative to the vehicle group (AWR score / AUC, FIG. 2) ([5]; 100 mg/kg orally, Student's t-test): significant suppressing effect against visceral hypersensitivity | suppressing effect against visceral pain (AWR score / AUC, FIG. 2) ([5]; 10, 30 and 100 mg/kg orally): suppressing effect against visceral pain occurred in visceral hypersensitivity as its concentration increased | pIC50 [6]: 4.72
